Measurements from ChEMBL document CHEMBL5055624, “Structural Determinants for the Mode of Action of Imidazopyridine DS2 at δ-Containing γ-Aminobutyric Acid Type A Receptors” (J Med Chem, 2021).

Key:
[1] = target: Gamma-aminobutyric acid receptor subunit alpha-4/beta-1/delta (Homo sapiens, UniProt O14764+P18505+P48169); test: Positive allosteric modulation of human recombinant alpha4beta1delta GABAA receptor expressed in delta-HEK cells assessed as potentiation of GABA-induced response in presence of GABA EC20 by FMP assay; type: cell-based, HEK293
Sequence of Gamma-aminobutyric acid receptor subunit alpha-4/beta-1/delta (P48169 whole entry): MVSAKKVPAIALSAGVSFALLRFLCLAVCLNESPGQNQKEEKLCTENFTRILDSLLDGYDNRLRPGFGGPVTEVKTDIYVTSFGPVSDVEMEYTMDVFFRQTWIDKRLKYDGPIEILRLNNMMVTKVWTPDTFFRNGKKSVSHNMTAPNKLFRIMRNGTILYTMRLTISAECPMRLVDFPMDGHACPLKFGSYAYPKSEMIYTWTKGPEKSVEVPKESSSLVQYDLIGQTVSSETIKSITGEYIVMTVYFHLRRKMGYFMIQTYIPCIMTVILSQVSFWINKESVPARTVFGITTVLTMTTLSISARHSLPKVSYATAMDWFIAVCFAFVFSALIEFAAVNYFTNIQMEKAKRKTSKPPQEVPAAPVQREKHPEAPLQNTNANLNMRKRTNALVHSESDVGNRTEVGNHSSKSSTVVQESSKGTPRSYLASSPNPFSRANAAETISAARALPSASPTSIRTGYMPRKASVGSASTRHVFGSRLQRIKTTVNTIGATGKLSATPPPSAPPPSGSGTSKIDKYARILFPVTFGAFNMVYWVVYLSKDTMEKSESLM
Sequence of Gamma-aminobutyric acid receptor subunit alpha-4/beta-1/delta (O14764 whole entry): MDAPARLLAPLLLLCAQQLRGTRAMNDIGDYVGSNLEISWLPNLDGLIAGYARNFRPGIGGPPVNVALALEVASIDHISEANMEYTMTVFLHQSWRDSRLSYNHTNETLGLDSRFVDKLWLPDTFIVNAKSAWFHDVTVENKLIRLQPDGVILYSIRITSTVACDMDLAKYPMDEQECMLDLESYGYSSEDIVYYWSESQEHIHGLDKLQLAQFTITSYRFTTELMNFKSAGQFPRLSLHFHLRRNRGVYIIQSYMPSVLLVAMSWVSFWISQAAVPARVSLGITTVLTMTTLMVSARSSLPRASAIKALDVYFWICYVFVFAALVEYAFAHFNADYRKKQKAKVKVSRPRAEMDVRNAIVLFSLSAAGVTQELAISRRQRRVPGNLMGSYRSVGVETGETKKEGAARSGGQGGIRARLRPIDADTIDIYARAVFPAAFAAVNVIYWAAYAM
Sequence of Gamma-aminobutyric acid receptor subunit alpha-4/beta-1/delta (P18505 whole entry): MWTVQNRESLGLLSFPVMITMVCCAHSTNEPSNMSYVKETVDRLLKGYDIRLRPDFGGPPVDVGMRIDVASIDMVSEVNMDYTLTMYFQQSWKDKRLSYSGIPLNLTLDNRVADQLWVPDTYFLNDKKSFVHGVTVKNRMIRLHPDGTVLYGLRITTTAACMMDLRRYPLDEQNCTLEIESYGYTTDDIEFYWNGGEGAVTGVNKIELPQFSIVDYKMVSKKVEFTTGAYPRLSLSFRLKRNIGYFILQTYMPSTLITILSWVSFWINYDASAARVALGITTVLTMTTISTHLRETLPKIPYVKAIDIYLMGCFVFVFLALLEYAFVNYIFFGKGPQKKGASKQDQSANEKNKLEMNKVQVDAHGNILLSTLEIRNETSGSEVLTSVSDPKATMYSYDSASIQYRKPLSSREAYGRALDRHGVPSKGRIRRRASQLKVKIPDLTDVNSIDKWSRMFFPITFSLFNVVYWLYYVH

[2] = system: GABAA receptor alpha4beta1delta (Homo sapiens); test: Positive allosteric modulation of human recombinant alpha4beta1delta GABAA receptor expressed in HEK293 cells assessed as GABA-induced response in presence of GABA EC20 by FMP assay
[3] = Solubility of compound; type: physicochemical

Structure (SMILES)	EC50 [1] [nM]	EC50 [2] [nM]	solubility [3]
O=C(Nc1c(-c2cccs2)nc2ccccn12)c1ccc(Cl)cc1	980	977	
O=C(Nc1c(-c2cccs2)nc2ccc(F)cn12)c1ccc(Cl)cc1	1920	1910	
Cc1ccc2nc(-c3cccs3)c(NC(=O)c3ccc(Cl)cc3)n2c1	160	162	
Clc1ccc(-c2noc(-c3c(-c4ccccc4)nc4ccccn34)n2)cc1			Insoluble

The next lines start with the values.

EC50 [1] [nM]	EC50 [2] [nM]	solubility [3]	Structure (SMILES)
60	60.3		O=C(Nc1c(-c2cccs2)nc2ccc(Br)cn12)c1ccc(Cl)cc1
140	145		O=C(Nc1c(-c2cccs2)nc2ccc(Cl)cn12)c1ccc(Cl)cc1
1100	1100		O=C(Nc1c(-c2cccs2)nc2ccc(C(F)(F)F)cn12)c1ccc(Cl)cc1
